Patent publication US8143244B2, “Cyclopropyl fused indolobenzazepine HCV NS5B inhibitors” (Bristol-Myers Squibb Company, priority 2009, dated 2012)
Like-named read-outs stand apart in the source and are kept apart here.

Experiments:
HCV NS5B = target: T1, HCV NS5B (Hepatitis C virus genotype 1b, UniProt Q9WMX2); assay: HCV NS5B RdRp enzyme assay; format: biochemical; details: HCV NS5B RdRp genotype 1b
T1 construct: The protein was expressed with an 18 amino acid C-terminal truncation to enhance the solubility; made in house; host or cells: E. coli BL21(DE3)
T1 sequence (Q9WMX2 2420-2992): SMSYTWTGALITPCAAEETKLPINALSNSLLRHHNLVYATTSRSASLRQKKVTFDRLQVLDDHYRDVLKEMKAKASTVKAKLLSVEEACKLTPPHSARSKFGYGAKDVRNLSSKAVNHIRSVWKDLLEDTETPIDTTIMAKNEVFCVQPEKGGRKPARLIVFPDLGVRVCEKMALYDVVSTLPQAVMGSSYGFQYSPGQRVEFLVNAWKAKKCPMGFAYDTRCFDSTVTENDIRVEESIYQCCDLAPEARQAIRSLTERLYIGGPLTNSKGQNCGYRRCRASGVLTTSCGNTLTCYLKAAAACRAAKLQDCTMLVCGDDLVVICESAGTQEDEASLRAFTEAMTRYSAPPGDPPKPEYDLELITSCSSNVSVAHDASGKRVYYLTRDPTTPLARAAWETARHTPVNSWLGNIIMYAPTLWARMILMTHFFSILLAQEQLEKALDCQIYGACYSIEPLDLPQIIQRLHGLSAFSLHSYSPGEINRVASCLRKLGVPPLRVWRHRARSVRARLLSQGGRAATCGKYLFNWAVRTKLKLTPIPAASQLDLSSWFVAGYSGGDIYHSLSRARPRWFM
Description: HCV NS5B RdRp cloning, expression, and purification. The cDNA encoding the NS5B protein of HCV, genotype 1b, was cloned into the pET21a expression vector. The protein was expressed with an 18 amino acid C-terminal truncation to enhance the solubility. The E. coli competent cell line BL21(DE3) was used for expression of the protein. Cultures were grown at 37° C. for ˜4 hours until the cultures reached an optical density of 2.0 at 600 nm. The cultures were cooled to 20° C. and induced with 1 mM IPTG. Fresh ampicillin was added to a final concentration of 50 μg/ml and the cells were grown overnight at 20° C.
Cell pellets (3L) were lysed for purification to yield 15-24 mgs of purified NS5B. The lysis buffer consisted of 20 mM Tris-HCl, pH 7.4, 500 mM NaCl, 0.5% triton X-100, 1 mM DTT, 1 mM EDTA, 20% glycerol, 0.5 mg/ml lysozyme, 10 mM MgCl2, 15 ug/ml deoxyribonuclease I, and Complete TM protease inhibitor tablets (Roche). After addition of the lysis buffer, frozen cell pellets were resuspended using a tissue homogenizer. To reduce the viscosity of the sample, aliquots of the lysate were sonicated on ice using a microtip attached to a Branson sonicator. The sonicated lysate was centrifuged at 100,000×g for 1 hr at 4° C. and filtered through a 0.2 μm filter unit (Corning).
The protein was purified using three sequential chromatography steps: Heparin sepharose CL-6B, polyU sepharose 4B, and Hitrap SP sepharose (Pharmacia). The chromatography buffers were identical to the lysis buffer but contained no lysozyme, deoxyribonuclease I, MgCl2 or protease inhibitor and the NaCl concentration of the buffer was adjusted according to the requirements for charging the protein onto the column. Each column was eluted with a NaCl gradient which varied in length from 5-50 column volumes depending on the column type. After the final chromatography step, the resulting purity of the enzyme is >90% based on SDS-PAGE analysis. The enzyme was aliquoted and stored at −80° C.
Standard HCV NS5B RdRp enzyme assay. HCV RdRp genotype 1b assays were run in a final volume of 60 μl in 96 well plates (Costar 3912). The assay buffer is composed of 20 mM Hepes, pH 7.5, 2.5 mM KCl, 2.5 mM MgCl2, 1 mM DTT, 1.6 U RNAse inhibitor (Promega N2515), 0.1 mg/ml BSA (Promega R3961), and 2% glycerol. All compounds were serially diluted (3-fold) in DMSO and diluted further in water such that the final concentration of DMSO in the assay was 2%. HCV RdRp genotype 1b enzyme was used at a final concentration of 28 nM. A polyA template was used at 6 nM, and a biotinylated oligo-dT12 primer was used at 180 nM final concentration. Template was obtained commercially (Amersham 27-4110). Biotinylated primer was prepared by Sigma Genosys. 3H-UTP was used at 0.6 μCi (0.29 μM total UTP). Reactions were initiated by the addition of enzyme, incubated at 30° C. for 60 min, and stopped by adding 25 μl of 50 mM EDTA containing SPA beads (4 μg/μl, Amersham RPNQ 0007). Plates were read on a Packard Top Count NXT after >1 hr incubation at room temperature.
Modified HCV NS5B RdRp enzyme assay. A modified enzyme assay was performed essentially as described for the standard enzyme assay except for the following: The biotinylated oligo dT12 primer was precaptured on streptavidin-coated SPA beads by mixing primer and beads in assay buffer and incubating at room temperature for one hour. Unbound primer was removed after centrifugation. The primer-bound beads were resuspended in 20 mM Hepes buffer, pH 7.5 and used in the assay at final concentrations of 20 nM primer and 0.67 μg/μl beads. Order of addition in the assay: enzyme (14 nM) was added to diluted compound followed by the addition of a mixture of template (0.2 nM), 3H-UTP (0.6 μCi, 0.29 μM), and primer-bound beads, to initiate the reaction; concentrations given are final. Reactions were allowed to proceed for 4 hours at 30° C.
IC50 values for compounds were determined using seven different [I]. […]

HCV replicon = HCV replicon FRET / luciferase assay (NeoLuc); format: cell-based, HCV genotype 1b; details: Hepatitis C virus, HCV replicon cells
Excerpt: FRET Assay Preparation. To perform the HCV FRET screening assay, 96-well cell culture plates were used. The FRET peptide (Anaspec, Inc.) (Taliani et al., Anal. Biochem. 1996, 240, 60-67) contains a fluorescence donor, EDANS, near one end of the peptide and an acceptor, DABCYL, near the other end. The fluorescence of the peptide is quenched by […] resonance energy transfer (RET) between the donor and the acceptor, but as the NS3 protease cleaves the peptide the products are released from RET quenching and the fluorescence of the donor becomes apparent. The assay reagent was made as follows: 5× cell Luciferase cell culture lysis reagent from Promega (#E153A) diluted to 1× with dH2O, NaCl added to 150 mM final, the FRET peptide diluted to 20 μM final from a 2 mM stock.
To prepare plates, HCV replicon cells, with or without a Renilla luciferase reporter gene, were trypsinized and placed into each well of a 96-well plate with titrated test compounds added in columns 3 through 12; columns 1 and 2 contained a control compound (HCV protease inhibitor), and the bottom row contained cells without compound. The plates were then placed in a CO2 incubator at 37° C.
Assays. Subsequent to addition of the test compounds described above (FRET Assay Preparation), at various times the plate was removed and Alamar blue solution (Trek Diagnostics, #00-100) was added per well as a measure of cellular toxicity. After reading in a Cytoflour 4000 instrument (PE Biosystems), plates were rinsed with PBS and then used for FRET assay by the addition of 30 ul of the FRET peptide assay reagent described above (FRET Assay Preparation) per well. The plate was then placed into the Cytoflour 4000 instrument which had been set to 340 excite/490 emission, automatic mode for 20 cycles and the plate read in a kinetic mode. Typically, the signal to noise using an endpoint analysis after the reads was at least three-fold. Alternatively, after Alamar blue reading, plates were rinsed with PBS, 50 ul of DMEM (high glucose) without phenol red was added and plates were then used for luciferase assay using the Promega Dual-Glo Luciferase Assay System,
Compound analysis was deteiniined by quantification of the relative HCV replicon inhibition and the relative cytotoxicity values. To calculate cytoxicity values, the average Alamar Blue fluorescence signals from the control wells were set as 100% non-toxic. The individual signals in each of the compound test wells were then divided by the average control signal and multiplied by 100% to determine […]. To calculate the HCV replicon inhibition values, an average background value was obtained from the two wells containing the highest amount of HCV protease inhibitor at the end of the assay period. These numbers were similar to those obtained from naïve Huh-7 cells.
The background numbers were then subtracted from the average signal obtained from the control wells and this number was used as 100% activity. The individual signals in each of the compound test wells were then divided by the averaged control values after background subtraction and multiplied by 100% to determine percent activity. EC50 values for a protease inhibitor titration were calculated as the concentration which caused a 50% reduction in FRET or luciferase activity. The two numbers generated for the compound plate, percent cytoxicity and percent activity were used to determine compounds of interest for further analysis.

[1] = genotype 1b, read-out: NeoLuc EC50, Table 1, genotype 1b

COc1ccc2c(c1)C1CC1(C(=O)N1CC34CNCC3(COC4)C1)Cn1c-2c(C2CCCCC2)c2ccc(C(=O)NS(=O)(=O)C(C)C)cc21 (stereo not shown)
IC50 (HCV NS5B; Table 1): 1.9 to 500 nM
EC50 (HCV replicon; [1]): 1.9 to 500 nM

C=C(/C=C1\C(=C)c2c(C3CCCCC3)c3ccc(C(=O)NS(=O)(=O)C(C)C)cc3n2CC2(C(=O)N3CC45CNCC4(CNC5)C3)CC12)OC (stereo not shown)
IC50 (HCV NS5B; Table 1): < 2.3 nM
EC50 (HCV replicon; [1]): > 1000 nM

COc1ccc2c(c1)C1CC1(C(=O)N1CC34COCC3(CN(C)C4)C1)Cn1c-2c(C2CCCCC2)c2ccc(C(=O)NS(=O)(=O)C(C)C)cc21 (stereo not shown)
IC50 (HCV NS5B; Table 1): < 2.3 nM
EC50 (HCV replicon; [1]): 1.9 to 500 nM

COc1ccc2c(c1)C1CC1(C(=O)N1CC34CN(C)CC3(CN(C)C4)C1)Cn1c-2c(C2CCCCC2)c2ccc(C(=O)NS(=O)(=O)C(C)C)cc21 (stereo not shown)
IC50 (HCV NS5B; Table 1): < 2.3 nM
EC50 (HCV replicon; [1]): 1.9 to 500 nM

C=C(C)S(=O)(=O)NC(=O)c1ccc2c(C3CCCCC3)c3n(c2c1)C[C@@]1(C(=O)N2CC45CNCC4(COC5)C2)C[C@H]1c1cc(OC)ccc1-3 (stereo partly shown)
IC50 (HCV NS5B; Table 1): < 2.3 nM
EC50 (HCV replicon; [1]): 1.9 to 500 nM

COc1ccc2c(c1)C1CC1(C(=O)N1CC34CNCC3(COC4)C1)Cn1c-2c(C2CCCCC2)c2ccc(C(=O)NS(=O)(=O)CC(C)C)cc21 (stereo not shown)
IC50 (HCV NS5B; Table 1): 1.9 to 500 nM
EC50 (HCV replicon; [1]): 1.9 to 500 nM

CCN1CC23COCC2(C1)CN(C(=O)C12CC1c1cc(OC)ccc1-c1c(C4CCCCC4)c4ccc(C(=O)NS(=O)(=O)C(C)C)cc4n1C2)C3 (stereo not shown)
IC50 (HCV NS5B; Table 1): 1.9 to 500 nM
EC50 (HCV replicon; [1]): 1.9 to 500 nM

COc1ccc2c(c1)C1CC1(C(=O)N1CC34COCC3(CN(C)C4)C1)Cn1c-2c(C2CCCCC2)c2ccc(C(=O)NS(=O)(=O)CC(C)C)cc21 (stereo not shown)
IC50 (HCV NS5B; Table 1): 1.9 to 500 nM
EC50 (HCV replicon; [1]): 1.9 to 500 nM

COC[C@]12CNC[C@@]1(COC)CN(C(=O)C13CC1c1cc(OC)ccc1-c1c(C4CCCCC4)c4ccc(C(=O)NS(=O)(=O)C(C)C)cc4n1C3)C2 (stereo partly shown)
EC50 (HCV replicon; [1]): 1.9 to 500 nM

C=C(C)S(=O)(=O)NC(=O)c1ccc2c(C3CCCCC3)c3n(c2c1)C[C@@]1(C(=O)N2C[C@@]4(COC)CNC[C@@]4(COC)C2)C[C@H]1c1cc(OC)ccc1-3
IC50 (HCV NS5B; Table 1): < 20 nM
EC50 (HCV replicon; [1]): 500 to 1000 nM

COC[C@@]12CN(C)C[C@]1(COC)CN(C(=O)C13CC1c1cc(OC)ccc1-c1c(C4CCCCC4)c4ccc(C(=O)NS(=O)(=O)C(C)C)cc4n1C3)C2 (stereo partly shown)
IC50 (HCV NS5B; Table 1): 1.9 to 500 nM
EC50 (HCV replicon; [1]): 1.9 to 500 nM

C=C(C)S(=O)(=O)NC(=O)c1ccc2c(C3CCCCC3)c3n(c2c1)C[C@@]1(C(=O)N2C[C@]4(COC)CN(C)C[C@]4(COC)C2)C[C@H]1c1cc(OC)ccc1-3
IC50 (HCV NS5B; Table 1): < 20 nM
EC50 (HCV replicon; [1]): 1.9 to 500 nM

COC(=O)N1CC23COCC2(C1)CN(C(=O)[C@]12C[C@H]1c1cc(OC)ccc1-c1c(C4CCCCC4)c4ccc(C(=O)NS(=O)(=O)C(C)C)cc4n1C2)C3 (stereo partly shown)
IC50 (HCV NS5B; Table 1): 1.9 to 500 nM

COC(=O)N1CC23COCC2(C1)CN(C(=O)[C@]12C[C@H]1c1cc(OC)ccc1-c1c(C4CCCCC4)c4ccc(C(=O)NS(=O)(=O)N(C)C)cc4n1C2)C3 (stereo partly shown)
IC50 (HCV NS5B; Table 1): > 1000 nM

CNC(=O)N1CC23COCC2(C1)CN(C(=O)[C@]12C[C@H]1c1cc(OC)ccc1-c1c(C4CCCCC4)c4ccc(C(=O)NS(=O)(=O)C(C)C)cc4n1C2)C3 (stereo partly shown)
IC50 (HCV NS5B; Table 1): 1.9 to 500 nM
EC50 (HCV replicon; [1]): 1.9 to 500 nM

CNC(=O)N1CC23COCC2(C1)CN(C(=O)[C@]12C[C@H]1c1cc(OC)ccc1-c1c(C4CCCCC4)c4ccc(C(=O)NS(=O)(=O)N(C)C)cc4n1C2)C3 (stereo partly shown)
IC50 (HCV NS5B; Table 1): 1.9 to 500 nM
EC50 (HCV replicon; [1]): 1.9 to 500 nM

COc1ccc2c(c1)[C@@H]1C[C@]1(C(=O)N1CC34COCC3(C1)CN(C1CC1)C4)Cn1c-2c(C2CCCCC2)c2ccc(C(=O)NS(=O)(=O)N(C)C)cc21 (stereo partly shown)
IC50 (HCV NS5B; Table 1): 1.9 to 500 nM
EC50 (HCV replicon; [1]): 1.9 to 500 nM

COc1ccc2c(c1)[C@@H]1C[C@]1(C(=O)N1CC34CCC3(C1)CN(C1CC1)C4)Cn1c-2c(C2CCCCC2)c2ccc(C(=O)NS(=O)(=O)C(C)C)cc21 (stereo partly shown)
IC50 (HCV NS5B; Table 1): 1.9 to 500 nM
EC50 (HCV replicon; [1]): 1.9 to 500 nM

CCOCCN1CC23COCC2(C1)CN(C(=O)[C@]12C[C@H]1c1cc(OC)ccc1-c1c(C4CCCCC4)c4ccc(C(=O)NS(=O)(=O)C(C)C)cc4n1C2)C3 (stereo partly shown) [drawing 101]
IC50 (HCV NS5B; Table 1): 1.9 to 500 nM
EC50 (HCV replicon; [1]): 1.9 to 500 nM

CCOCCN1CC23COCC2(C1)CN(C(=O)[C@]12C[C@H]1c1cc(OC)ccc1-c1c(C4CCCCC4)c4ccc(C(=O)NS(=O)(=O)C(C)C)cc4n1C2)C3 (stereo partly shown) [drawing 112]
IC50 (HCV NS5B; Table 2): 1.9 nM
EC50 (HCV replicon; Table 2, read-out: NeoLuc EC50): 7.69 nM
